According to BindingDB's records for doi:10.7270/Q22J699S (Nmmlsc, 2010):

The compounds below were run against Guanine nucleotide-binding protein G(o) subunit alpha (Homo sapiens, UniProt P09471) (assay: RGS8-Galphao interaction regulators, SAR follow-up, biochemical, multiplexed bead assay, additional SAR round (AID 2827)).
Sequence of Guanine nucleotide-binding protein G(o) subunit alpha (P09471 whole entry): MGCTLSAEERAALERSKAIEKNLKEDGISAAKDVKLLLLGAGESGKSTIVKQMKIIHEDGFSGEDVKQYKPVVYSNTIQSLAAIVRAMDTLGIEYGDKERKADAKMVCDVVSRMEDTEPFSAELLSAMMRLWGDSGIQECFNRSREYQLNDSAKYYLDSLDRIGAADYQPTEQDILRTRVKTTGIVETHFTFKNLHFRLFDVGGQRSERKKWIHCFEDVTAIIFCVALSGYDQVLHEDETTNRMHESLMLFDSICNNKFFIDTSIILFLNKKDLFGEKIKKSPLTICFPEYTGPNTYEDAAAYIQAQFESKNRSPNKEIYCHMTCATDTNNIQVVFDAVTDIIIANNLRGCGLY

EC50, > 30 µM:
O=C(c1sc2cc([N+](=O)[O-])ccc2c1Cl)N1CCNCC1
O=C(NCCCN1CCOCC1)c1sc2cc([N+](=O)[O-])ccc2c1Cl [3-chloranyl-N-(3-morpholin-4-ylpropyl)-6-nitro-1-benzothiophene-2-carboxamide]
O=C(NCCCn1ccnc1)c1sc2cc([N+](=O)[O-])ccc2c1Cl [3-chloro-N-[3-(1-imidazolyl)propyl]-6-nitro-1-benzothiophene-2-carboxamide]
NC(=O)c1sc2cc([N+](=O)[O-])ccc2c1Cl [KSC-1-100]
Cc1ccc2c(Cl)c(C(=O)NCCCN3CCOCC3)sc2c1 [KUC103874N]
